Series [1] has as its target P2Y12R (Homo sapiens, UniProt Q9H244). In words: cell-based. The settings on record: IC50, [33P]2-MeSADP competitor; triplicates, mean; footnote b values: three independent experiments, mean ± SD. Here is the method: The cell cultures were maintained in an incubator at 37 °C under a humidified and 5% CO2-conditioned atmosphere. Cells were passaged at 80% confluency. For binding assays, cells were harvested with Trypsin-EDTA (5 mL, Gibco) and resuspended in medium. The suspension was centrifuged at 1000g for 5 min and the supernatant was discarded. The cells were adjusted to assay cell concentration (2 × 10^6 cells/mL) by the addition of D-PBS and stored at 37 °C up to 1 h prior to the binding assay.
The mixture was transferred to a 96-well filter plate (1.0 μm glass fiber filter, MultiScreenHTS FB Filter Plate, Merck Millipore, Billercia, MA) and filtered with a vacuum manifold (MultiScreenHTS Vacuum Manifold, Merck Millipore, Billercia, MA). The filters were washed by the addition of cold PBS buffer (4 × 200 μL) and dried at rt for 1 h. Afterward, a punch-tip plate was mounted and the filters were separated into scintillation vials (10 mL) containing scintillation cocktail (4 mL, Rotiszint eco plus LSC-Universalcocktail). […] Bound activity was plotted as a function of ligand concentration in GraphPad Prism 8.0 (GraphPad Software, version 8.4.3., San Diego, CA).

A short description of series [2]: Ex vivo biodistribution 60 min p.i. It counts as in vivo, mouse. The settings on record: WT mice.
The nature of series [3]: In vitro stability in PBS, radio-HPLC. The note with it: PBS formulation, 37 °C.
A short description of series [4]: Log D 7.4 shake flask method, n-octanol/PBS. The note with it: pH 7.4.
Experimental: The distribution of [^18F]12 between n-octanol and PBS buffer was determined by the shake-flask method at rt. […] After 30 min, three samples (100 μL) were taken from each phase. […] Radioactivity for all samples was quantified by a γ-counter (counting time 1 min, counting window 450–570 keV, HIDEX AMG γ Counter version 1.6.0.0, Turku, Finland).
A short description of series [5]: In vitro stability in human blood/plasma, radio-HPLC. The settings on record: 37 °C.
Series [6] deals with T1, P2Y12R (Mus musculus, UniProt Q9CPV9). In words: Dynamic in vivo PET imaging in WT, PLX and Trem2-/- mice. The settings on record: for maximum brain uptake C max: whole brain TAC.
T1 sequence (Q9CPV9 whole entry): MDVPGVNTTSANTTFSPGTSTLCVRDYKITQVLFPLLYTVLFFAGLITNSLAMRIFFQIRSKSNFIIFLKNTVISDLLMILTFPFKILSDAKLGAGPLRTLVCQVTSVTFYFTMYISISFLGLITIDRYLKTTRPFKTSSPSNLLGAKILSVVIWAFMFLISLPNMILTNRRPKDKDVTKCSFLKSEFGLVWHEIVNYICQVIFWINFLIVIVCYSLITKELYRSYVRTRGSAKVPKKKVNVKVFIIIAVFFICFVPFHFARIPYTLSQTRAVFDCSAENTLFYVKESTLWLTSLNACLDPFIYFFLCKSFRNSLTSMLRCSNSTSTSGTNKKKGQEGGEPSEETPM
Experimental: Dynamic in vivo PET imaging was carried out in WT mice (n = 8) in order to assess the tracer distribution and brain uptake for [^18F]12 (Figure A). An initial peak of activity and subsequent rapid washout in blood and lungs was observed after tracer injection. The activity then predominantly accumulated in the liver, kidneys, bladder and intestines (Figure B). […] Dynamic in vivo PET imaging was repeated with WT mice (n = 2) under self-block conditions. […] Mouse organs were collected 60 min p.i. after intracardial perfusion to quantify the tracer uptake ex vivo.
To exclude a potential bias in brain PET interpretation caused by varying blood levels, volume-of-distribution (V T) images were computed using an image-derived cardiac input function.
The mice were scanned first with CT (70 kVp/650 μA, exposure time 300 ms, Helical 1.0 pitch). […] PET images of each mouse were coregistered with CT images of the corresponding mouse. A standardized global mean volume of interest (VOI) was used to assess tracer enrichment in the brain and to generate time-activity curves. For liver, bladder and kidney, VOIs were manually drawn as spheres. Data are reported as %ID/g or SUV. For each dynamic PET scan, VT was calculated using the method described by Logan et al., employing a cardiac input function obtained from a standardized VOI. The resulting brain V T image was then analyzed using a standardized global mean VOI. No corrections were made for radiometabolites.
Series [7] is described as follows: Ex vivo metabolite analysis by radio-HPLC (plasma, liver, brain). The note with it: 60 min p.i.
Experimental: 60 min after tracer administration, mice were transferred to the anesthesia box for isoflurane overdose and euthanized by cervical dislocation. Mouse organs and blood samples were collected, weighed and counted in a γ-counter. Blood samples were obtained by cardiac puncture and transferred to EDTA tubes (Microvette 500 K3E, Sarstedt, Nümbrecht, Germany) to prevent platelet aggregation. Blood samples were centrifuged at 3000g for 5 min to isolate blood plasma. An equal volume of TFA solution (10%) was added to plasma to precipitate remaining plasma proteins. The precipitate was separated by centrifugation at 20,817g for 5 min. […] Brain and liver samples were homogenized (Ika disperser T8.10) in a 1:1 mixture of MeCN and H2O and centrifuged at 3000g for 5 min.
For series [8], the target named is T1, P2Y12R. Nature of the series: In vitro autoradiography on mouse brain sections. Further details: from tissue; host or cells: brain of living WT, PLX-5622-treated and Trem2-/- mice. It counts as binding. On the procedure: In vitro ARG experiments on brain sections from all animal models were performed under baseline and blocking conditions. […] However, as already concluded from our PET data (Figure ), the high signal in PLX sections may reflect a substantial amount of nonspecific (NSB) or off-target binding.
WT, PLX and Trem2^–/– mouse brain sections were thawed to rt for 5 min and then preincubated with PBS buffer (pH = 7.4) for 10 min. Sections were then incubated with a maximum of 0.5 MBq/mL [^18F]12 tracer formulation at rt for 45 min in PBS buffer. […] Subsequently, sections were washed with 30% ethanol for 1 min, 70% ethanol for 2 min and PBS for 1 min, before leaving them to dry at rt for 60 min. Afterward, brain sections were exposed to a phosphor imaging plate at rt for 24 h and then scanned with a CR-Reader (CR35 BIO, DÜRR MEDICAL, Bietigheim-Bissingen, Germany). The images were analyzed using Aida Image Analyzer software (v.4.50.010, Elysia-raytest GmbH, Straubenhardt, Germany). Quantification was performed by placing a region of interest (ROI) in the CTX and the hypothalamus (HYP) as pseudo reference region. Results are either expressed as normalized intensity relative to maximal intensity after background subtraction or as CTX to HYP ratio.

Series [9] deals with T1, P2Y12R. In words: Correlation of PET signal with immunohistochemistry. Further details: from tissue; host or cells: brain of living WT, PLX-5622-treated and Trem2-/- mice. The settings on record: cortical SUV 25–60 min p.i. It counts as in vivo. On the procedure:
Ex vivo immunohistochemical evaluation of Iba1 and P2Y12R expression was performed for a subset of mice (4 WT, 4 PLX, 8 Trem2^–/–) to correlate P2Y12 PET signal with target expression. […] High levels of Iba1 and P2Y12R were also detectable in Trem2^–/– mice, but reflecting the results of the PET studies, P2Y12R levels were not elevated compared to WT mice. Cortical SUV levels, derived from PET imaging in the most significant time frame (25–60 min p.i.) (Figure S12D), were correlated with Iba1 or P2Y12R expression density. A strong association between Iba1 signal and tracer uptake (R = 0.6589, p = 0.0055, Figure B) and between the P2Y12R signal and tracer uptake (R = 0.754, p = 0.0007, Figure C) was observed. The P2Y12 signal was well associated with Iba1 (R = 0.6, p = 0.014, Figure D) indicating predominant microglial receptor visualization.
Paraformaldehyde-fixed 50 μm thick sagittal brain sections were incubated overnight at 4 °C in PBS with 5% normal goat serum and 0.5% Triton X-100 containing guinea pig monoclonal anti-Iba1 primary antibody (1:500, Synaptic Systems GmbH, Göttingen, Germany, 234308) and rat monoclonal anti-P2Y12R primary antibody (1:200, P2YM 17A12, this work). […] The images were processed using the LAS X Software (version 3.9.1.28433), and analysis was conducted with FiJi/ImageJ (version 1.54f) by quantifying Iba1 and P2Y12R signal over a predefined threshold. […]

Several values for one entry are separate records, joined by “and”; a condition that tells them apart may be missing. Equal entries are not always repeated.

P2Y12R (Homo sapiens, UniProt Q9H244), sequence (Q9H244 whole entry): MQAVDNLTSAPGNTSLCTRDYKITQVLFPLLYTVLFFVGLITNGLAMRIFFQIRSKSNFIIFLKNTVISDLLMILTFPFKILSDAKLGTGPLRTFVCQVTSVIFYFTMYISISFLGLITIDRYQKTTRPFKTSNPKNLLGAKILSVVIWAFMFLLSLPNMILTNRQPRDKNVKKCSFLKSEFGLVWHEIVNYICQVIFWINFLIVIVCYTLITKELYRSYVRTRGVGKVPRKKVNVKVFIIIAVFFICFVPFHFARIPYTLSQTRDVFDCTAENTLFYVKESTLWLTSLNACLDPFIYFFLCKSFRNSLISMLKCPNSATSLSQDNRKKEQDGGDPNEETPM

Take `N#Cc1cc2c(nc1N1CCC(C(=O)NCc3ccc(F)cc3)CC1)COC2=O` [Compound 14, 1-(3-Cyano-5-oxo-5,7-dihydrofuro[3,4-b]-pyridin-2-yl)-N-(4-fluorobenzyl)-piperidine-4-carboxamide]: the IC50 – broadly, the concentration that inhibits the measured activity by half – on P2Y12R [1] is 0.199 µM.
The same measure, in the same setting: the same measure for `CCOC(=O)c1ccc(N2CCC(C(=O)NCc3ccc(F)cc3)CC2)nc1C` [Compound 9, Ethyl 6-(4-((4-Fluorobenzyl)-carbamoyl)-piperidin-1-yl)-2-methylnicotinate]: 0.762 µM.
On the same count and under the same terms, the same measure for `CCOC(=O)c1ccc(N2CC(C(=O)NCc3ccc(F)cc3)C2)nc1C` [Compound 20, Ethyl 6-(3-((4-Fluorobenzyl)-carbamoyl)-azetidin-1-yl)-2-methylnicotinate]: 0.806 µM; for `N#Cc1cc2c(nc1N1CCN(C(=O)NCc3ccc(F)cc3)CC1)COC2=O` [Compound 8, 4-(3-Cyano-5-oxo-5,7-dihydrofuro[3,4-b]-pyridin-2-yl)-N-(4-fluorobenzyl)-piperazine-1-carboxamide]: 1.84 µM and 5.71 µM.
As for `CCOC(=O)c1cc(C#N)c(N2CCC(C(=O)NCc3ccc([18F])cc3)CC2)nc1C` [[^18F]12], in series [2] (n = 2), the Heart uptake is recorded as 1.30 ± 0.51 %ID/g, the Kidney uptake is recorded as 5.5 ± 1.1 %ID/g, the Liver uptake is recorded as 19.6 ± 4.8 %ID/g and the Lung uptake turned out to be 0.68 ± 0.15 %ID/g. In series [2] (n = 2), the Pancreas uptake is 0.79 ± 0.14 %ID/g, the Plasma uptake was 1.58 ± 0.78 %ID/g and the Spleen uptake is 0.77 ± 0.19 %ID/g. In series [2] (n = 2, listed as [18F]12), this molecule had a Kidney uptake of 5.51 ± 1.08 %ID/g and a Liver uptake of 19.62 ± 4.75 %ID/g. In series [2] (n = 12), this molecule showed a Blood uptake of 1.2 ± 0.6 %ID/g and a Brain uptake of 0.6 ± 0.2 %ID/g. In [2] (n = 12, listed as [18F]12), the Blood uptake is listed as 1.24 ± 0.56 %ID/g and the Brain uptake is reported as 0.61 ± 0.21 %ID/g. Moreover, the “time stable with no decomposition” value in [3] is “at least 2 h”. Besides, in [4], the logD (usually lipophilicity at a set pH, counting ionised and neutral species) is 2.67 ± 0.45. In addition, the “time stable with no decomposition” value in series [5] is “at least 2 h”. Further, at P2Y12R [6] (25–60 min p.i., p = 0.0029), the “higher brain accumulation in WT compared to PLX mice” value stood at 42%. The “higher brain accumulation in Trem2-/- compared to PLX mice” value on P2Y12R [6] (25–60 min p.i., p = 0.0362) was 30%. The “maximum brain uptake C max” value on P2Y12R [6] (Trem2-/- mice) amounted to 1.7 ± 0.5 SUV. Moreover, the “brain uptake under self-block conditions” value at P2Y12R [6] (WT mice n = 2, 200-fold excess of nonradioactive 12 injected 10 min prior) is on record as “increased brain uptake”. For the same molecule, the “C 25min/C 60min” value on P2Y12R [6] (WT mice, brain TAC plateau phase) is reported as around 1.5. Moreover, at P2Y12R [6] (WT mice, p.i.), the “time of maximum brain uptake” value is reported as at most 2 min. The “maximum brain uptake C max” value at P2Y12R [6] (WT mice) was 2.5 ± 0.7 SUV. Moreover, the “brain V T increase in WT compared to PLX mice” value on P2Y12R [6] (image-derived cardiac input function, p = 0.002) is 16%. At P2Y12R [6] (image-derived cardiac input function, p = 0.0454), the “brain V T increase in Trem2-/- compared to PLX mice” value is on record as 10%. Further, the “maximum brain uptake C max” value at P2Y12R [6] (microglia-depleted (PLX) mice) is given as 2.0 ± 0.5 SUV. Further, in series [7] (WT mice, radio-HPLC), the “fraction of radioactivity in liver” value is on record as 47% and the “fraction of radioactivity in plasma” value is on record as “about 11%”. Moreover, the “intact tracer in plasma” value in series [7] (WT, PLX and Trem2-/- mice) is recorded as 7 ± 4%. In addition, the “intact tracer in brain” value in series [7] (all groups) is listed as above 99%. The “cortical signal under blocking with Ticagrelor” value (“cortical signal under blocking” below) at P2Y12R [8] (PLX sections, 1 μM ticagrelor, p > 0.05) is “no reduction was observed”. In addition, the “cortical signal under blocking” value on P2Y12R [8] (Trem2-/- sections, 1 μM ticagrelor, p < 0.05) is listed as “significantly reduced”. At P2Y12R [8] (WT sections, 1 μM ticagrelor (1000-fold excess), p < 0.001), the “cortical signal under blocking” value is “significantly reduced”. In addition, the “signal under blocking with nonradioactive compound 12” value on P2Y12R [8] (WT, PLX and Trem2-/- sections, 1 μM 12 (1000-fold excess)) was “almost complete blocking of the signal”. Also, the “CTX signal normalized to HYP, PLX sections compared to WT and Trem2-/-” value on P2Y12R [8] (WT: p < 0.005, Trem2-/-: p < 0.001) is recorded as “significant decreased uptake”. For the same molecule, the “correlation R between P2Y12R signal and tracer uptake” value at P2Y12R [9] (p = 0.0007) amounted to 0.754. Besides, at P2Y12R [9] (p = 0.0055), the “correlation R between Iba1 signal and tracer uptake” value is 0.6589.
On P2Y12R [1], `CCOC(=O)c1cc(C#N)c(N2CCC(C(=O)NCCc3ccc(F)cc3)CC2)nc1C` [Compound 18, Ethyl 5-Cyano-6-(4-((4-fluorophenethyl)-carbamoyl)-piperidin-1-yl)-2-methylnicotinate] had a concentration for half-maximal inhibition (IC50) of 27.1 µM.
The same measure, in the same setting: the same measure for `CCOC(=O)c1cc(Cl)c(N2CCC(C(=O)NCCc3ccc(F)cc3)CC2)nc1C` [Compound 17, Ethyl 5-Chloro-6-(4-((4-fluorophenethyl)-carbamoyl)-piperidin-1-yl)-2-methylnicotinate]: 0.661 µM and 0.469 µM; for `CCOC(=O)c1cc(C#N)c(N2CCN(C(=O)NCc3ccc(F)cc3)CC2)nc1C` [Compound 7, Ethyl 5-Cyano-6-(4-((4-fluorobenzyl)-carbamoyl)-piperazin-1-yl)-2-methylnicotinate]: 1.84 µM; for `CCOC(=O)c1cnc(N2CCC(C(=O)NCCc3ccc(F)cc3)CC2)c(Cl)c1` [Compound 16, Ethyl 5-Chloro-6-(4-((4-fluorophenethyl)-carbamoyl)-piperidin-1-yl)-nicotinate]: 0.661 µM.
Same read-out and setting: the same measure for `CCCOc1cc(N2CCC(C(=O)NCCc3ccc(F)cc3)CC2)c(Cl)cc1C(=O)OCC` [Compound 19, Ethyl 5-Chloro-4-(4-((4-fluorophenethyl)-carbamoyl)-piperidin-1-yl)-2-propoxybenzoate]: 27.1 µM and 3.67 µM; for `CCOC(=O)c1ccc(N2CCC(C(=O)NCCc3ccc(F)cc3)CC2)nc1C` [Compound 15, Ethyl 6-(4-((4-Fluorophenethyl)-carbamoyl)-piperidin-1-yl)-2-methylnicotinate]: 1.26 µM.
Still for that read-out and setting: the same measure for `CCOC(=O)c1cnc(N2CC(C(=O)NCc3ccc(F)cc3)C2)c(Cl)c1` [Compound 21, Ethyl 5-Chloro-6-(3-((4-fluorobenzyl)-carbamoyl)-azetidin-1-yl)-nicotinate]: 0.566 µM.

The values above are taken from publication PMC12362594, “Design, Synthesis and Preclinical Evaluation of a Brain-Permeable PET Tracer for P2Y12 Receptor Imaging in the Brain” (Journal of Medicinal Chemistry, 2025).
